ChEMBL document CHEMBL3885881, “DrugMatrix”

Organism: Rattus norvegicus
Assay: DrugMatrix - Regimen: Daily Repeat
Type: toxicity, organism-based, Sprague-Dawley
Design: regimen Daily Repeat, gender Male, age 6-8 weeks
Conditions: in vivo, po, 20 mg/kg, route oral GAVAGE, dose level High, vehicle 100 % WATER; for BASOPHIL / EOSINOPHIL / ERYTHROCYTE COUNT / HEMATOCRIT / HEMOGLOBIN / LEUKOCYTE COUNT / LYMPHOCYTE / MEAN CORPUSCULAR HEMOGLOBIN / MEAN CORPUSCULAR HEMOGLOBIN CONCENTRATION / MEAN CORPUSCULAR VOLUME / MONOCYTE / NEUTROPHIL / PLATELET COUNT: tissue Blood; for ALANINE AMINOTRANSFERASE / ALBUMIN / ALKALINE PHOSPHATASE / ASPARTATE AMINOTRANSFERASE / BLOOD UREA NITROGEN / CARBON DIOXIDE / CHLORIDE / CHOLESTEROL / CREATINE PHOSPHOKINASE / CREATININE / GLUCOSE / LACTATE DEHYDROGENASE / LIPASE / PHOSPHORUS / POTASSIUM / SODIUM / TOTAL BILIRUBIN / TOTAL PROTEIN / URIC ACID: tissue Plasma

Which BASOPHIL (72 h, time 3 day) does the source give for `C=CC=O` [ACROLEIN] here?
The BASOPHIL was 0.17%.

What about the EOSINOPHIL (72 h, time 3 day) of the same molecule?
The EOSINOPHIL was 1.23%.

And the “ERYTHROCYTE COUNT” value (72 h, time 3 day)?
Its value is 6.79 x10E6/uL.

What about the HEMATOCRIT (72 h, time 3 day) of the same molecule?
The HEMATOCRIT was 44.43%.

And the HEMOGLOBIN (72 h, time 3 day)?
Its HEMOGLOBIN is 14.33 G/DL.

And the “LEUKOCYTE COUNT” value (72 h, time 3 day)?
Its value is 13.23 x10E3/uL.

And the LYMPHOCYTE (72 h, time 3 day)?
Its LYMPHOCYTE is 50.33%.

What about the “MEAN CORPUSCULAR HEMOGLOBIN” value (72 h, time 3 day) of the same molecule?
Its value is 21.17 pg.

And the “MEAN CORPUSCULAR HEMOGLOBIN CONCENTRATION” value (72 h, time 3 day)?
The value was 32.27 G/DL.

And the “MEAN CORPUSCULAR VOLUME” value (72 h, time 3 day)?
Its value is 65.47 fL.

What about the MONOCYTE (72 h, time 3 day) of the same molecule?
The MONOCYTE was 5.93%.

What about the NEUTROPHIL (72 h, time 3 day) of the same molecule?
The NEUTROPHIL was 40.03%.

What about the “PLATELET COUNT” value (72 h, time 3 day) of the same molecule?
Its value is 1336 x10E3/uL.

What about the “ALANINE AMINOTRANSFERASE” value (72 h, time 3 day) of the same molecule?
The value was 33.67 u/L.

And the ALBUMIN (72 h, time 3 day)?
The ALBUMIN was 3.47 G/DL.

What about the “ALKALINE PHOSPHATASE” value (72 h, time 3 day) of the same molecule?
Its value is 159 u/L.

And the “ASPARTATE AMINOTRANSFERASE” value (72 h, time 3 day)?
Its value is 72.67 u/L.

What about the “BLOOD UREA NITROGEN” value (72 h, time 3 day) of the same molecule?
The value was 13 mg/dL.

And the “CARBON DIOXIDE” value (72 h, time 3 day)?
Its value is 27.67 mmol/L.

What about the CHLORIDE (72 h, time 3 day) of the same molecule?
The CHLORIDE was 105.67 MEQ/L.

And the CHOLESTEROL (72 h, time 3 day)?
The CHOLESTEROL was 122.33 mg/dL.

And the “CREATINE PHOSPHOKINASE” value (72 h, time 3 day)?
The value was 216.67 u/L.

And the CREATININE (72 h, time 3 day)?
Its CREATININE is 0.43 mg/dL.

What about the GLUCOSE (72 h, time 3 day) of the same molecule?
Its GLUCOSE is 151.67 mg/dL.

What about the “LACTATE DEHYDROGENASE” value (72 h, time 3 day) of the same molecule?
The value was 35 u/L.

What about the LIPASE (72 h, time 3 day) of the same molecule?
The LIPASE was 24.33 u/L.

And the PHOSPHORUS (72 h, time 3 day)?
Its PHOSPHORUS is 11.6 mg/dL.

What about the POTASSIUM (72 h, time 3 day) of the same molecule?
The POTASSIUM was 5.87 MEQ/L.

What about the SODIUM (72 h, time 3 day) of the same molecule?
Its SODIUM is 148 MEQ/L.

What about the “TOTAL BILIRUBIN” value (72 h, time 3 day) of the same molecule?
The value was 0.27 mg/dL.

And the “TOTAL PROTEIN” value (72 h, time 3 day)?
The value was 5.43 G/DL.

And the “URIC ACID” value (72 h, time 3 day)?
The value was 1.27 mg/dL.

What about the BASOPHIL (120 h, time 5 day) of the same molecule?
Its BASOPHIL is 0.23%.

What about the EOSINOPHIL (120 h, time 5 day) of the same molecule?
Its EOSINOPHIL is 0.37%.

What about the “ERYTHROCYTE COUNT” value (120 h, time 5 day) of the same molecule?
Its value is 7 x10E6/uL.

And the HEMATOCRIT (120 h, time 5 day)?
Its HEMATOCRIT is 45.17%.

What about the HEMOGLOBIN (120 h, time 5 day) of the same molecule?
The HEMOGLOBIN was 14.17 G/DL.

And the “LEUKOCYTE COUNT” value (120 h, time 5 day)?
Its value is 18.4 x10E3/uL.

And the LYMPHOCYTE (120 h, time 5 day)?
Its LYMPHOCYTE is 56.63%.

What about the “MEAN CORPUSCULAR HEMOGLOBIN” value (120 h, time 5 day) of the same molecule?
Its value is 20.2 pg.

What about the “MEAN CORPUSCULAR HEMOGLOBIN CONCENTRATION” value (120 h, time 5 day) of the same molecule?
Its value is 31.37 G/DL.

What about the “MEAN CORPUSCULAR VOLUME” value (120 h, time 5 day) of the same molecule?
The value was 64.53 fL.

And the MONOCYTE (120 h, time 5 day)?
The MONOCYTE was 5.23%.

What about the NEUTROPHIL (120 h, time 5 day) of the same molecule?
Its NEUTROPHIL is 35.47%.

What about the “PLATELET COUNT” value (120 h, time 5 day) of the same molecule?
The value was 1464.67 x10E3/uL.

What about the “ALANINE AMINOTRANSFERASE” value (120 h, time 5 day) of the same molecule?
Its value is 36.33 u/L.

What about the ALBUMIN (120 h, time 5 day) of the same molecule?
Its ALBUMIN is 3.33 G/DL.

And the “ALKALINE PHOSPHATASE” value (120 h, time 5 day)?
The value was 202.33 u/L.

And the “ASPARTATE AMINOTRANSFERASE” value (120 h, time 5 day)?
Its value is 71 u/L.

What about the “BLOOD UREA NITROGEN” value (120 h, time 5 day) of the same molecule?
The value was 15 mg/dL.

What about the “CARBON DIOXIDE” value (120 h, time 5 day) of the same molecule?
Its value is 23.67 mmol/L.

What about the CHLORIDE (120 h, time 5 day) of the same molecule?
The CHLORIDE was 110.33 MEQ/L.

And the CHOLESTEROL (120 h, time 5 day)?
Its CHOLESTEROL is 106 mg/dL.

What about the “CREATINE PHOSPHOKINASE” value (120 h, time 5 day) of the same molecule?
The value was 207.67 u/L.

What about the CREATININE (120 h, time 5 day) of the same molecule?
Its CREATININE is 0.27 mg/dL.

And the GLUCOSE (120 h, time 5 day)?
Its GLUCOSE is 140 mg/dL.

And the “LACTATE DEHYDROGENASE” value (120 h, time 5 day)?
The value was 58 u/L.

What about the LIPASE (120 h, time 5 day) of the same molecule?
The LIPASE was 40.33 u/L.

And the PHOSPHORUS (120 h, time 5 day)?
The PHOSPHORUS was 11.4 mg/dL.

What about the POTASSIUM (120 h, time 5 day) of the same molecule?
Its POTASSIUM is 5.6 MEQ/L.

And the SODIUM (120 h, time 5 day)?
The SODIUM was 152.33 MEQ/L.

And the “TOTAL BILIRUBIN” value (120 h, time 5 day)?
Its value is 0.23 mg/dL.

And the “TOTAL PROTEIN” value (120 h, time 5 day)?
Its value is 5.37 G/DL.

And the “URIC ACID” value (120 h, time 5 day)?
Its value is 1.73 mg/dL.

And the BASOPHIL ([…], time 14 day)?
Its BASOPHIL is 0.9%.

What about the EOSINOPHIL ([…], time 14 day) of the same molecule?
The EOSINOPHIL was 0.5%.

What about the “ERYTHROCYTE COUNT” value ([…], time 14 day) of the same molecule?
Its value is 7.34 x10E6/uL.

And the HEMATOCRIT ([…], time 14 day)?
Its HEMATOCRIT is 43.1%.

And the HEMOGLOBIN ([…], time 14 day)?
Its HEMOGLOBIN is 14.5 G/DL.

What about the “LEUKOCYTE COUNT” value ([…], time 14 day) of the same molecule?
Its value is 33.86 x10E3/uL.

And the LYMPHOCYTE ([…], time 14 day)?
The LYMPHOCYTE was 32.7%.

And the “MEAN CORPUSCULAR HEMOGLOBIN” value ([…], time 14 day)?
Its value is 19.8 pg.

What about the “MEAN CORPUSCULAR HEMOGLOBIN CONCENTRATION” value ([…], time 14 day) of the same molecule?
Its value is 33.6 G/DL.

And the “MEAN CORPUSCULAR VOLUME” value ([…], time 14 day)?
Its value is 58.8 fL.

And the MONOCYTE ([…], time 14 day)?
The MONOCYTE was 5.2%.

What about the NEUTROPHIL ([…], time 14 day) of the same molecule?
The NEUTROPHIL was 59.1%.

What about the “PLATELET COUNT” value ([…], time 14 day) of the same molecule?
Its value is 2095 x10E3/uL.

What about the “ALANINE AMINOTRANSFERASE” value ([…], time 14 day) of the same molecule?
The value was 40 u/L.

What about the ALBUMIN ([…], time 14 day) of the same molecule?
Its ALBUMIN is 3.6 G/DL.

What about the “ALKALINE PHOSPHATASE” value ([…], time 14 day) of the same molecule?
Its value is 220 u/L.

What about the “ASPARTATE AMINOTRANSFERASE” value ([…], time 14 day) of the same molecule?
The value was 68 u/L.

What about the “BLOOD UREA NITROGEN” value ([…], time 14 day) of the same molecule?
The value was 13 mg/dL.

What about the “CARBON DIOXIDE” value ([…], time 14 day) of the same molecule?
The value was 31 mmol/L.

And the CHLORIDE ([…], time 14 day)?
The CHLORIDE was 101 MEQ/L.

What about the CHOLESTEROL ([…], time 14 day) of the same molecule?
Its CHOLESTEROL is 116 mg/dL.

What about the “CREATINE PHOSPHOKINASE” value ([…], time 14 day) of the same molecule?
Its value is 267 u/L.

And the CREATININE ([…], time 14 day)?
The CREATININE was 0.4 mg/dL.

What about the GLUCOSE ([…], time 14 day) of the same molecule?
The GLUCOSE was 145 mg/dL.

What about the “LACTATE DEHYDROGENASE” value ([…], time 14 day) of the same molecule?
Its value is 109 u/L.

And the LIPASE ([…], time 14 day)?
Its LIPASE is 33 u/L.

And the PHOSPHORUS ([…], time 14 day)?
The PHOSPHORUS was 9.2 mg/dL.

What about the POTASSIUM ([…], time 14 day) of the same molecule?
The POTASSIUM was 6.6 MEQ/L.

And the SODIUM ([…], time 14 day)?
The SODIUM was 147 MEQ/L.

And the “TOTAL BILIRUBIN” value ([…], time 14 day)?
Its value is 0.5 mg/dL.

And the “TOTAL PROTEIN” value ([…], time 14 day)?
Its value is 5.7 G/DL.

What about the “URIC ACID” value ([…], time 14 day) of the same molecule?
Its value is 2.5 mg/dL.
